In general, IC50 refers to the concentration at which inhibition is half-maximal.

This passage reports IC50 results from ChEMBL document CHEMBL2424544, “Inhibitors of switch kinase 'spleen tyrosine kinase' in inflammation and immune-mediated disorders: a review” (Eur J Med Chem, 2013).

For this experiment, the target named is Tyrosine-protein kinase SYK (Homo sapiens, UniProt P43405). The experiment is described as follows: Inhibition of spleen tyrosine kinase (unknown origin).

For the molecule `CNC(=O)c1cnc(NCCN)nc1Nc1cccc(C(F)(F)F)c1`, the IC50 (read-out: IC50) was greater than 10 µM.

Turning to `COc1ccc2c(c1)c(/C=C1\C(=O)Nc3ccc(S(=O)(=O)N(C)C)cc31)cn2C`, the IC50 result is given as “Not Active”.

`CNc1nc(NCCN)ncc1C(N)=O`: under “read-out: IC50”, the half-maximal inhibitory concentration (IC50) was greater than 10 µM.

In the case of `CN(C)CCN(C)c1ncc(C(N)=O)c(Nc2cccc(C(F)(F)F)c2)n1`, the IC50 (read-out: IC50) is greater than 10 µM.

As for `CN(C)C(=O)c1cnc(NCCN)nc1Nc1cccc(C(F)(F)F)c1`, the IC50 (read-out: IC50) is greater than 10 µM.
